Assays:
cerebral blood flow = experiment: Cerebral blood flow by cortical laser Doppler during intranasal nitric oxide in intubated rodents; type: in vivo; conditions: intranasal non-inhaled delivery, within 60 minutes
Description: (§1) In intubated rodents, the inventors have shown that cerebral blood flow increases by 100% within 60 minutes of intranasal nitric oxide delivery.

[1] = tested on: cerebral ischemia (carotid artery occlusion model); experiment: Carotid artery occlusion model, Speckle laser Doppler, intubated rodents; type: in vivo; conditions: both during the carotid occlusion and following ligature release
Description: as §1

cerebral perfusion = experiment: CT perfusion scanning before and after intranasal nitric oxide in intubated patients with focal cerebral ischemia; type: in vivo, human
[2] = Tolerability of intranasal nitric oxide in awake humans (normal volunteers); type: in vivo, human
Source text: While nitric oxide may be given intranasally and without inhalation into the lungs to intubated, comatose individuals the tolerability of intranasal nitric oxide in awake humans has not previously been investigated. The inventors have tested the effect of nitric oxide in humans (normal volunteers) during intranasal delivery. […] Therefore it can easily be tolerated by awake, non-intubated patients.

## [N]=O [nitric oxide]
Cerebral blood flow
  cerebral blood flow increase: 100%
[1]
  perfusion in the ischemic hemisphere: perfusion is improved in the ischemic hemisphere
Cerebral perfusion; Post Rx
  Cerebral Blood Flow, Changes in ACA Watershed: Normalization,
  Mean Transit Time, Changes in ACA Watershed: Normalization
Cerebral perfusion; Post Rx vs Pre Rx, left (ischemic) hemisphere
  Cerebral Blood Flow, Changes in ACA Watershed: increase in perfusion on L: 67% increase in
Cerebral perfusion; Post Rx, one hour of intranasal non-inhaled nitric oxide (Pre Rx 6)
  Mean Transit Time, Right Hemisphere (normal): 6.1 s
Cerebral perfusion; Post Rx, one hour of intranasal non-inhaled nitric oxide (Pre Rx 10)
  Mean Transit Time, Left Hemisphere (ischemic): 6.0 s
Cerebral perfusion; Post Rx, one hour of intranasal non-inhaled nitric oxide (Pre Rx 31)
  Cerebral Blood Flow, Left Hemisphere (ischemic): 52
Cerebral perfusion; Post Rx, one hour of intranasal non-inhaled nitric oxide (Pre Rx 49)
  Cerebral Blood Flow, Right Hemisphere (normal): 45
Cerebral perfusion; intubated patients with cerebral ischemia
  cerebral perfusion during treatment (CT perfusion scanning): augmentation of cerebral perfusion and normalization of regional perfusion abnormalities
[2]; humans, high concentration, intra-nasally and without inhalation
  tolerability of gas treatment: tolerated at high concentration
[2]; normal volunteers, concentrations up to 100 PPM
  sensation during intranasal delivery: does not elicit any sensation

Reference: patent US20130273179A1, “SYSTEM AND METHOD FOR IMPROVING OUTCOME OF CEREBRAL ISCHEMIA” (ASTUCE, INC., priority 2012, published 2013)
